Measurements taken from US20130198900A1, “"THIAMINE PYROPHOSPHATE (TPP) RIBOSWITCH MUTANTS PRODUCING VITAMIN B1 ENRICHED FOOD AND FEED CROPS"” (BEN-GURION UNIVERSITY OF THE NEGEV, priority 2010, published 2013).

Key:
[1] = tested on: AtTHIC promoter and AtTHIC 3' UTR (TPP riboswitch); experiment: Dual reporter assay (RFP under AtTHIC promoter, YFP fused to AtTHIC 3' UTR) with exogenous TPP; assay type: in vivo, Arabidopsis
Description: Arabidopsis thaliana plants (ecotype Columbia, Col-0) were grown on soil in climate rooms (22° C.; 70% humidity; 16/8 hr light/dark for long day conditions and 10/14 hr light/dark for short day conditions). The Atthi1 and Atthic mutants were obtained from the European Arabidopsis Stock Center (NASC; http://arabidopsis.info/; stock ID: N3375; salk—011114 respectively). For experiments involving TPP addition, plants were grown for 14 days in petri dishes on MS media (basal salt mixture; Duchefa, Haarlem, The Netherlands) with 1% sucrose and 1% agar, to which TPP (Sigma, Cat. no. C8754, water soluble) was added up to the indicated concentration.
In order to determine whether the diurnal changes of AtTHIC expression are caused by the light or by the circadian clock, Arabidopsis plants were subjected to a circadian assay (see material and methods above). […] In the growth conditions used herein, the transcripts reached their highest expression level at the beginning of the dark period and their lowest expression level shortly after the beginning of the light period. […] To separate between these two modes of gene control, a dual reporter assay was developed, allowing observing the in vivo activity of both elements. Expression of one reporter gene, YELLOW FLUORESCENT PROTEIN(YFP) was under the control of a constitutive promoter (CaMV-35S) and fused to the AtTHIC 3′ UTR. A second reporter gene, RED FLUORESCENT PROTEIN(RFP) was placed under the regulation of the native AtTHIC promoter and fused to the NOS terminator (FIG. 4). These two reporters were introduced into the Arabidopsis wild type (wt) and thi1 mutant (deficient in thiamine biosynthesis), and their expression was monitored under various conditions. Wild type plants harboring this double reporter genes system were subjected to a circadian assay.
The expression level of the above-described reporter genes (YFP and RFP) in fully grown plants was also determined. […]

[2] = tested on: thiamine biosynthesis; experiment: Bacimethrin treatment of wild type plants, thiamine and TPP levels by HPLC; assay type: in vivo, Arabidopsis; conditions: 1 mM in growth medium, wild type plants (FIG. 26)
Description: Bacimethrin is a naturally occurring thiamine anti-metabolite. It is converted to 2′-methoxy-thiamine pyrophosphate by the thiamine biosynthetic enzymes at a rate that is 6 times faster than the rate of conversion of the natural substrate HMP to thiamine pyrophosphate (Reddick J J et al., 2001. Bioorg Med Chem Lett 11, 2245-2248). Since bacimethrin is a thiamine biosynthesis inhibitor in bacteria, its potency in plants was examined.
Samples (100 mg) were harvested from three weeks old plants grown in short day conditions at the end of the light period, and immediately frozen in liquid nitrogen. The plant samples were then grinded followed by the addition of 400 μl of 0.1M HCl, and sonicated in a water bath for 30 min. The resulting extracts were centrifuged at 14,000 rpm (in a regular bench centrifuge) for 10 min. […] Thiochrome derivatives of thiamine, TMP, and TPP were detected by fluorescence at excitation 370 nm and emission 430 nm. Different concentrations of thiamine, thiamine monophosphate (TMP) and thiamine pyrophosphate (TPP) standards were analyzed using the same extraction procedure and chromatographic conditions. […] For quantification of the samples, the peak areas of the samples were compared to the corresponding standard curve.

[3] = tested on: AtTHIC gene; experiment: AtTHIC transcript levels (qPCR) under bacimethrin treatment in wt, upf1 and upf3 plants; assay type: in vivo, Arabidopsis; conditions: 1 mM bacimethrin
Description: Quantitative Real Time PCR (qPCR) gene expression analysis was performed with three biological replicates using gene/variant-specific qPCR oligonucleotide-pairs, designed with Primer Express software (Applied Biosystems). AtUBIQUITIN C (At5g25760) was used as endogenous control for all analyses. Fixed amount of DNAse-treated total RNA was reverse transcribed using AMV Reverse Transcriptase (EurX Ltd., Poland). RT-PCR reactions were tracked on an ABI 7300 instrument (Applied Biosystems) using the PlatinumR SYBR SuperMix (Invitrogen). Each sample was PCR-amplified from the same amount of cDNA template in triplicate reactions. Following an initial step in the thermal cycler for 10 min at 95° C., PCR amplification proceeded for 40 cycles of 15 s at 95° C. and 60 s at 60° C., and completed by melting curve analysis to confirm specificity of PCR products. The baseline and threshold values were adjusted according to manufacturer's instructions.
Given the importance of the AtTHIC gene for thiamine biosynthesis, its mode of regulation, particularly the nature of the high turnover of the intron-spliced variant compared to the intron-retained variant was further examined. Since the spliced variant contains two introns in its 3′ UTR, its instability could be due to the activity of the non-sense mediated decay (NMD) pathway (Kertesz S et al., 2006. Nucleic Acids Res 34, 6147-6157). Thus, the level of this transcript was measured in the background of upf1 and upf3 mutants of Arabidopsis affected in the NMD pathway (Arciga-Reyes L et al., 2006. Plant J 47, 480-489). Transcript level was examined in both normal and low TPP concentrations (FIG. 9). Lowering the plant endogenous TPP levels in these experiments was obtained using 1 mM bacimethrin, an anti-metabolite that inhibits thiamine production (Reddick et al., 2001; ibid). In wt plants as well as in the upf1 and upf3 mutants, bacimethrin treatment (preventing thiamine accumulation) caused the upregulation of the total AtTHIC transcript and of its intron-retention variant (FIGS. 9A and 9B, respectively). […] Thus, the accumulation of this transcript in the upf mutants can be explained by an increase in its stability since the NMD trans-factors are missing. It should also be noticed, that due to the accumulation of the intron-spliced variant under bacimethrin treatment, the total AtTHIC transcripts are more abundant in the upf mutants.

[4] = tested on: thiamine biosynthetic enzymes; conditions: Reddick et al., 2001; cited from earlier work

| Compound | RFP expression directed by AtTHIC promoter ([1]; Atthi1 mutant plants) | YFP expression regulated by AtTHIC 3' UTR ([1]; Atthi1 mutant plants) | reporter gene expression (RFP and YFP) ([1]; wt plants with double reporter gene system, increasing TPP concentrations) | TPP levels [2] | thiamine levels [2] | AtTHIC intron-spliced variant transcript ([3]; upf1 and upf3 mutants (FIG. 9C)) | AtTHIC intron-spliced variant transcript ([3]; wt plants (FIG. 9C)) | total AtTHIC transcript ([3]; wt plants and upf1, upf3 mutants (FIG. 9A)) | AtTHIC intron-retention variant transcript ([3]; wt plants and upf1, upf3 mutants (FIG. 9B)) | rate of conversion to 2'-methoxy-thiamine pyrophosphate relative to conversion of natural substrate HMP to thiamine pyrophosphate [4] [times faster] |
| --- | --- | --- | --- | --- | --- | --- | --- | --- | --- | --- |
| Cc1ncc(C[n+]2csc(CCO[P@](=O)(O)OP(=O)(O)O)c2C)c(N)n1 [TPP, thiamine pyrophosphate] | did not respond | regulated YFP expression in a TPP dependent manner | Only slight changes | – | – | – | – | – | – | – |
| COc1ncc(CO)c(N)n1 [bacimethrin] | – | – | – | reduced | increased | did not decrease | down-regulation | upregulation | upregulation | 6 |
